The values below come from BindingDB's records for doi:10.1074/jbc.M114.557629 (Weizmann Institute of Science, 2014).

In general, Ki refers to a measure of affinity in units of concentration, obtained from inhibition or displacement. A lower Ki goes with tighter binding.

For test [1], the target named is Sodium/potassium-transporting ATPase subunit alpha-1/beta-1 (Homo sapiens, UniProt P05023+P05026). The test is described as follows: Na,K-ATPase Inhibition Assay.
In test [2] the target is Sodium/potassium-transporting ATPase subunit alpha-2/beta-1 (Homo sapiens, UniProt P05026+P50993). Put plainly: Na,K-ATPase Inhibition Assay.

In the case of `CCN1CCC(O[C@@H]2[C@H](C)O[C@@H](O[C@@H]3[C@H](C)O[C@@H](O[C@H]4CC[C@@]5(C)C(CCC6C5C[C@H](O)[C@]5(C)[C@@H](C7=CC(=O)OC7)CC[C@]65O)C4)C[C@@H]3O)C[C@@H]2O)OC(C)C1` (some centres not stated) [DEt (12)], the Ki in test [1] worked out at 53 nM; in test [2], 18.5 nM.
`CC1CN(C)CCC(O[C@@H]2[C@H](C)O[C@@H](O[C@@H]3[C@H](C)O[C@@H](O[C@H]4CC[C@@]5(C)C(CCC6C5C[C@H](O)[C@]5(C)[C@@H](C7=CC(=O)OC7)CC[C@]65O)C4)C[C@@H]3O)C[C@@H]2O)O1` (some centres not stated) [DMe (11)]: the values for the Ki in test [1] and in test [2] were 101 nM and 15.6 nM, respectively.
With `CC1CN(C(CO)C(=O)O)CCC(O[C@@H]2[C@H](C)O[C@@H](O[C@@H]3[C@H](C)O[C@@H](O[C@H]4CC[C@@]5(C)C(CCC6C5C[C@H](O)[C@]5(C)[C@@H](C7=CC(=O)OC7)CC[C@]65O)C4)C[C@@H]3O)C[C@@H]2O)O1` (some centres not stated) [DSer (6)], the results for the inhibition constant (Ki) in test [1] and in test [2] were 316 nM and 145 nM, respectively.
Taken in the same sequence, the figures for `C[C@]12CC[C@H](O)C[C@H]1CC[C@@H]1[C@@H]2C[C@@H](O)[C@]2(C)[C@@H](C3=CC(=O)OC3)CC[C@]12O` [CS337] were 139 nM and 130 nM.
Regarding `CC1CN(C(CO)C(N)=O)CCC(O[C@@H]2[C@H](C)O[C@@H](O[C@@H]3[C@H](C)O[C@@H](O[C@H]4CC[C@@]5(C)C(CCC6C5C[C@H](O)[C@]5(C)[C@@H](C7=CC(=O)OC7)CC[C@]65O)C4)C[C@@H]3O)C[C@@H]2O)O1` (some centres not stated) [DSerN (7)], the Ki worked out at 242 nM in test [1] and 144 nM in test [2].
In the same order, the values of `CC1CN(O)CCC(O[C@@H]2[C@H](C)O[C@@H](O[C@@H]3[C@H](C)O[C@@H](O[C@H]4CC[C@@]5(C)C(CCC6C5C[C@H](O)[C@]5(C)[C@@H](C7=CC(=O)OC7)CC[C@]65O)C4)C[C@@H]3O)C[C@@H]2O)O1` (some centres not stated) [DOH (1)] are 311 nM and 134 nM.
In the same order, the values of `CC1CN(NC(N)=O)CCC(O[C@@H]2[C@H](C)O[C@@H](O[C@@H]3[C@H](C)O[C@@H](O[C@H]4CC[C@@]5(C)C(CCC6C5C[C@H](O)[C@]5(C)[C@@H](C7=CC(=O)OC7)CC[C@]65O)C4)C[C@@H]3O)C[C@@H]2O)O1` (some centres not stated) [DSCar (8)] are 102 nM and 20 nM.
Taken in the same sequence, the figures for `CC1CN(CCC(N)=O)CCC(O[C@@H]2[C@H](C)O[C@@H](O[C@@H]3[C@H](C)O[C@@H](O[C@H]4CC[C@@]5(C)C(CCC6C5C[C@H](O)[C@]5(C)[C@@H](C7=CC(=O)OC7)CC[C@]65O)C4)C[C@@H]3O)C[C@@H]2O)O1` (some centres not stated) [DPrN (9)] were 249 nM and 47 nM.
`CC1CN(CC(=O)O)CCC(O[C@@H]2[C@H](C)O[C@@H](O[C@@H]3[C@H](C)O[C@@H](O[C@H]4CC[C@@]5(C)C(CCC6C5C[C@H](O)[C@]5(C)[C@@H](C7=CC(=O)OC7)CC[C@]65O)C4)C[C@@H]3O)C[C@@H]2O)O1` (some centres not stated) [DGly (2)]: the Ki in test [1] was 124 nM; in test [2] it was 25 nM.
Taken in the same sequence, the figures for `C[C@H]1O[C@@H](O[C@H]2[C@@H](O)C[C@H](O[C@H]3CC[C@@]4(C)[C@H](CC[C@@H]5[C@@H]4C[C@@H](O)[C@]4(C)[C@@H](C6=CC(=O)OC6)CC[C@]54O)C3)O[C@@H]2C)C[C@H](O)[C@@H]1O` [Dbis] were 196 nM and 74 nM.
Taken in the same sequence, the figures for `CC1CN(CCN)CCC(O[C@@H]2[C@H](C)O[C@@H](O[C@@H]3[C@H](C)O[C@@H](O[C@H]4CC[C@@]5(C)C(CCC6C5C[C@H](O)[C@]5(C)[C@@H](C7=CC(=O)OC7)CC[C@]65O)C4)C[C@@H]3O)C[C@@H]2O)O1` (some centres not stated) [DEtDA (10)] were 69 nM and 16.7 nM.
Taken in the same sequence, the figures for `CC1CN(CC(F)(F)F)CCC(O[C@@H]2[C@H](C)O[C@@H](O[C@@H]3[C@H](C)O[C@@H](O[C@H]4CC[C@@]5(C)C(CCC6C5C[C@H](O)[C@]5(C)[C@@H](C7=CC(=O)OC7)CC[C@]65O)C4)C[C@@H]3O)C[C@@H]2O)O1` (some centres not stated) [DMeCF3 (13)] were 199 nM and 44 nM.
On to `CC1CN(C(C)C(N)=O)CCC(O[C@@H]2[C@H](C)O[C@@H](O[C@@H]3[C@H](C)O[C@@H](O[C@H]4CC[C@@]5(C)C(CCC6C5C[C@H](O)[C@]5(C)[C@@H](C7=CC(=O)OC7)CC[C@]65O)C4)C[C@@H]3O)C[C@@H]2O)O1` (some centres not stated) [DAlaN (5)], for which the Ki in test [1] was found to be 232 nM; in test [2] it was 67 nM.
Taken in the same sequence, the figures for `COC(=O)CN1CCC(O[C@@H]2[C@H](C)O[C@@H](O[C@@H]3[C@H](C)O[C@@H](O[C@H]4CC[C@@]5(C)C(CCC6C5C[C@H](O)[C@]5(C)[C@@H](C7=CC(=O)OC7)CC[C@]65O)C4)C[C@@H]3O)C[C@@H]2O)OC(C)C1` (some centres not stated) [DGlMe (3)] were 540 nM and 128 nM.
In the same order, the values of `CC1CN(CC(N)=O)CCC(O[C@@H]2[C@H](C)O[C@@H](O[C@@H]3[C@H](C)O[C@@H](O[C@H]4CC[C@@]5(C)C(CCC6C5C[C@H](O)[C@]5(C)[C@@H](C7=CC(=O)OC7)CC[C@]65O)C4)C[C@@H]3O)C[C@@H]2O)O1` (some centres not stated) [DGlyN (4)] are 152 nM and 20.4 nM.
In the same order, the values of `CC1CN(C(CC(=O)O)CC(=O)O)CCC(O[C@@H]2[C@H](C)O[C@@H](O[C@@H]3[C@H](C)O[C@@H](O[C@H]4CC[C@@]5(C)C(CCC6C5C[C@H](O)[C@]5(C)[C@@H](C7=CC(=O)OC7)CC[C@]65O)C4)C[C@@H]3O)C[C@@H]2O)O1` (some centres not stated) [DbisGly (14)] are 80 nM and 34.9 nM.
